This is an account of results in paper PMC9673804, “Design, synthesis and antitumor evaluation of novel pyrazolo[3,4-d]pyrimidines incorporating different amino acid conjugates as potential DHFR inhibitors” (Journal of Enzyme Inhibition and Medicinal Chemistry, 2022).

Structures are written as SMILES.

The test system of this experiment is mammary gland breast cancer (MCF-7). Kind of experiment: SRB cytotoxicity assay, MCF-7. As to conditions: Homo sapiens, MCF7, MCF-7 cells. Type of experiment: cell-based. On the procedure: The SRB colorimetric assay was employed to assess the synthesized compounds’ cytotoxic effects on several cancer cell lines (Table 1)[11–14]. […] Furthermore, the effect of tested compounds was evaluated on the normal immortalized HPDE cell line.
Sulforhodamine B (SRB) assay was employed to assay in-vitro antitumor activities of all the synthesised compounds as describer previously. […] The cell lines were obtained from the American Type Culture Collection (Rockville, USA).
(The SRB assay estimates cell density from bound dye.)

By IC50 is commonly meant the point on the concentration scale where inhibition reaches its midpoint. `N=C(N)NCCCC(NC(=O)c1ccc(Nc2ncnc3c2cnn3-c2ccccc2)cc1)C(=O)O` (stereo not shown) [Compound 7f, 5-Guanidino-2-{4-[(1-phenyl-1H-pyrazolo[3,4-d]pyrimidin-4-yl)amino]benzamido}pentanoic acid] registered an IC50 of 4.65 ± 0.17 µM.
